Earlier results on one molecule are cited in patent US20090247521A1, “SOLUBLE EPOXIDE HYDROLASE INHIBITORS FOR THE TREATMENT OF ENDOTHELIAL DYSFUNCTION” (Arete Therapeutics, Inc., priority 2007, published 2009).

The structures appear in SMILES notation.

This series relates to thoracic aortic rings. The conditions noted are these: aortic rings from DOCA-salt hypertensive rats that received the s-EH inhibitor, compared with vehicle and normotensive controls.

For the molecule `CCCCCCCCCCCCNC(=O)NC12CC3CC(CC(C3)C1)C2` [ADU, adamantyl dodecyl urea], the acetylcholine-induced endothelium-dependent vasorelaxation entry is “augmented acetylcholine-induced endothelium-dependent vasorelaxation, similar to that of the normotensive control animals”.
